Experimental findings from patent US20260284069A1, “PARG INHIBITORY COMPOUNDS” (FoRx Therapeutics AG, priority 2023, published 2026) are described below.

Molecules are shown by their SMILES. Where a name gives a salt, the structure may show the parent alone. Read-outs that look alike come from different tables or passages of the source.

In one experiment the test system is U2OS cells. Kind of experiment: Cellular viability assay (U2OS, PARG-inhibition insensitive cell line). The experiment is classed as cell-based. As to conditions: 96 hours incubation, Cell Titer-Glo, read-out: EC50 determined in U2OS cells, cellular viability assay. How it is done:
(§1) NCIH-460 as a PARG-inhibition sensitive cell line and U2OS as PARG-inhibition insensitive cell line were plated at 1000 cells/well and 2000 cells/well, respectively, in 96-well white plates with clear flat bottom. After 24 hours, the compounds were added with the Tecan digital dispenser (D300e), in duplicates. The outer wells of the plate were excluded. After 96 hours of incubation, 150 μl of the growth medium were removed and 50 μl of Cell Titer-Glo (Promega) were added per well. Following an incubation of 10 minutes, luminescence was read using a plate reader (Tecan). Averaged values of the samples were normalized to DMSO treated control samples. Curves were fit as % of the control vs. log of the compound concentration using a 4 parameter log-logistic function: […]

A further experiment has as its system NCIH-460 cells. Kind of experiment: Cellular viability assay (NCIH-460, PARG-inhibition sensitive cell line). The class given is cell-based. The note with it: Cell Titer-Glo, read-out: EC50 determined in NCIH-460 cells, cellular viability assay. Here is the method:
as §1

Another experiment deals with T1, human PARG (Homo sapiens, UniProt Q86W56, A967T/C963S/D927K/H446G/I916T/L447S/L473S/M841I/N479S/R811K/S802A/S858P/T924D).
T1 construct: human PARG (448-976 [H446G, L447S, L473S); 6His-TwinStrep (protease-cleavable) (N, cleaved yes); Gly-Ser at positions 446-447, given as H446G, L447S; host or cells: E. coli BL21 (DE3)
T1 sequence (Q86W56 446-976 H446G/L447S/L473S/N479S/S802A/R811K/M841I/S858P/I916T/T924D/D927K/C963S/A967T): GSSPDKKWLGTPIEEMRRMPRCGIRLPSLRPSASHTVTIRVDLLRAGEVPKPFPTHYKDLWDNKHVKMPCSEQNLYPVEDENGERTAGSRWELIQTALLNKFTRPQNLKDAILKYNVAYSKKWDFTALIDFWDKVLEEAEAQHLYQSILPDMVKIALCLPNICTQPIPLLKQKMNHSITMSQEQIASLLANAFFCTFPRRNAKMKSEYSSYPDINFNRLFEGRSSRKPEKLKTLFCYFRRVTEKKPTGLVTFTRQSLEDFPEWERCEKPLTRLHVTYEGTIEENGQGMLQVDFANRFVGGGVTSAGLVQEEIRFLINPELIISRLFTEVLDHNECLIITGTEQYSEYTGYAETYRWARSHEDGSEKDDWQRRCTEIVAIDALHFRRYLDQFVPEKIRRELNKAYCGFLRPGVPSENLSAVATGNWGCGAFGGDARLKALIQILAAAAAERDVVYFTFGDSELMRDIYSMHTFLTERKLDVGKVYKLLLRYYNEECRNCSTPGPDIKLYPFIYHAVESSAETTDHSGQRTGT
Nature of the experiment: PARG enzymatic IC50 assay. The class given is biochemical. The note with it: PARG protein, 2 hours incubation; substrate ADP-ribose-pNP, absorbance 405 nm; read-out: IC50 determined in PARG enzymatic assay. Here is the method:
A codon optimized gene encoding human PARG (448-976 [H446G, L447S, L473S, N479S, S802A, R811K, M841I, S858P, I916T, T924D, D927K, C963S, A967T]) was synthesized by Genscript, and cloned into pET15b (NcoI/BamHI) with an N-terminal, […] protease cleavable 6His-TwinStrep tag. Expression of the protein in E. coli BL21 (DE3) was induced by addition of 0.2 mM IPTG to a shake flask culture grown to OD600=0.8 at 37° C. Growth was allowed to continue at 30° C. for a further 20 hours before harvesting by centrifugation and storage of the cell pellet at −80° C.
Protein was purified by IMAC and SEC: frozen cell pellets (typically 40 g wet weight) were resuspended by homogenization in 5 volumes buffer A (25 mM Tris/HCl pH 8.0, 200 mM NaCl, 2 mM DTT), supplemented with 1 mg of DNase I from bovine pancreas (Sigma-Aldrich) and protease inhibitors (Roche Complete™ EDTA-free protease inhibitor tablet), and lysed by passage through a Constant Systems BasicZ homogenizer. The lysate was clarified by centrifugation for 60 minutes at 25,000 g, 4° C., and the lysate supernatant was loaded onto 5 ml StrepTrap HP (Cytiva) pre-equilibrated with buffer A. The column was washed with buffer A (~10 CV), then buffer B containing 1M KCl (~5 CV), and then the protein was eluted with buffer A containing 2.5 mM d-Desthiobiotin. Pooled fractions containing 6HisTwinStrep-TEV-hPARG were incubated with TEV protease overnight at 4° C. hPARG was separated from uncleaved material and […] protease through gel filtration with Superdex75 sizing column (GE Healthcare) pre-equilibrated with SEC buffer (15 mM Tris/HCl pH 8.5, 100 mM NaCl, 2 mM DTT). Pooled fractions containing pure hPARG were concentrated using a 10 k MWCO spin concentrator (VivaSpin) to 10 mg/mL, and then either used immediately for crystallisation or snap-frozen in liquid nitrogen for storage at −80° C.
PARG enzyme as incubated with compound or vehicle (DMSO) for 2 hours in a 384 well plate. After adding the PARG substrate ADP-ribose-pNP, the plate was read for absorbance intensity at 405 nm. The vehicle (DMSO) with high absorbance intensity represents no inhibition of enzymatic reaction while the low control (no enzyme) with low absorbance intensity represents full inhibition of enzymatic reaction.
• hPARG: Peak Protein, 30 nM • Substrate: ADP-pNP, 800 μM, Jena Bioscience catalog #NU-955 • Reaction time: 60 minutes • Assay buffer: 50 mM Tris-HCl pH 8.0, 100 mM NaCl, 2 mM DTT • Temperature: 30° C. • Total volume: 30 μL
• 0% inhibition control: DMSO • 100% inhibition control: No enzyme
The protocol that was used for enzyme reaction and detection is as follows: • 1. Transfer 100 nL of the final concentration of test compounds or vehicle (DMSO) to the appropriate wells of a microtiter plate. • 2. Centrifuge the plate at 1000 rpm for 1 minute. • 3. Transfer 14.6 μL of 2× final concentration of enzyme in assay buffer or assay buffer alone to the appropriate wells. • 4. Centrifuge the plate at 1000 rpm for 1 minute. • 5. Incubate the plate at room temperature for 15 minutes or 2 hours. • 6. Transfer 15.4 μL of 2× substrate in assay buffer to all the test wells. • 7. Centrifuge the plate at 1000 rpm for 1 minute. • 8. Read the plate on a plate reader (e.g., Spark Tecan).

The target in the next experiment is T2, PARG (Homo sapiens, UniProt Q86W56).
T2 construct: endogenous in cells; host or cells: U2OS
T2 sequence (Q86W56 whole entry): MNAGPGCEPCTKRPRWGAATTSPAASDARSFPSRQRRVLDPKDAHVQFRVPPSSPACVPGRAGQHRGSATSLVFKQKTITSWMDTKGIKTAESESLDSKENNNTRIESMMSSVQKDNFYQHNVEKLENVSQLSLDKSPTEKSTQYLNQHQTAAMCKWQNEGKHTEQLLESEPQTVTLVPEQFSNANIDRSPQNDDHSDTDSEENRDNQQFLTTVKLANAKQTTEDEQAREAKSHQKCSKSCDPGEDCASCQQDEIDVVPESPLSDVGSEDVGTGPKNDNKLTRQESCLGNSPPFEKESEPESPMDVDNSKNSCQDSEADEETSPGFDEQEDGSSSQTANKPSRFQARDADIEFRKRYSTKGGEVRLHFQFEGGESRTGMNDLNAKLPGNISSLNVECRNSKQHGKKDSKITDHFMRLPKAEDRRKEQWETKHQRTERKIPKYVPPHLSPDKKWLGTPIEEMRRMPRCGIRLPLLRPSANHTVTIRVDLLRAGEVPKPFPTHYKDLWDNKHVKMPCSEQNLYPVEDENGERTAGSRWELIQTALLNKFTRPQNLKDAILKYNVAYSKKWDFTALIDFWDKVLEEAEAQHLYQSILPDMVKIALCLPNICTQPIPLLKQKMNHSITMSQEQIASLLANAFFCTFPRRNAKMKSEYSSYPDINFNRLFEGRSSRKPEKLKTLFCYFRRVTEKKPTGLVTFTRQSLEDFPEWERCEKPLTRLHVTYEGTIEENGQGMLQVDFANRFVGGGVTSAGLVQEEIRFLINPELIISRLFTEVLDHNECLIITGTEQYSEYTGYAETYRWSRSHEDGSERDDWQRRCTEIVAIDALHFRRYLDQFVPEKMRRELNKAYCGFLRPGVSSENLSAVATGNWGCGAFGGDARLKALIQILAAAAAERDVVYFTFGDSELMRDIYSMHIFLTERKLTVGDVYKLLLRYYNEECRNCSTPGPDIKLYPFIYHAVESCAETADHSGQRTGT
Nature of the experiment: Cellular PAR chain assay. The experiment is classed as cell-based. As to conditions: U2OS cells, 1 hour compound pretreatment then 1-hour TMZ treatment; % PAR chain positive cells by flow cytometry; read-out: EC50 determined in cellular PAR chain assay. Here is the method: The ability of compounds to inhibit PARG in response to DNA damage, was assessed with U2OS cells pretreated with the compounds for 1 hour, following a 1-hour treatment with the DNA alkylating agent temozolomide (TMZ). […] The cells were incubated for 2 hours at room temperature with a mouse monoclonal antibody against poly (ADP) ribose (PAR) polymer. The cells were washed and incubated with an anti-mouse Alexa-488 conjugated secondary antibody for 1 hour at room temperature. Propidium iodide staining was used to determine DNA content in the cells (staining at 4° C. overnight). The fluorescence intensity of the cells was assessed by flow cytometry (Cytoflex from Beckmann) and the percentage of PAR chain positive cells (gated in relation to TMZ+DMSO treated control) was determined. PAR chain positive cells % were fit against the concentration of the compound using a 4 parameter log-logistic function, generating PAR chain EC50 values: […]

Setting [1] is: Homo sapiens, NCI-H460, 96 h, 96 hours incubation.

For `CC1(C)CN(c2cc(S(=O)(=O)NC3(C)CC3)cn3c(-c4nnc(C(F)F)s4)ncc23)CC(CO)N1` (single isomer, unassigned) [Example 14a, (R or S)-3-(5-(difluoromethyl)-1,3,4-thiadiazol-2-yl)-8-(5-(hydroxymethyl)-3,3-dimethylpiperazin-1-yl)-N-(1-methylcyclopropyl)imidazo[1,5-a]pyridine-6-sulfonamide], the EC50 with U2OS cells (Homo sapiens, U2OS, 96 h) is more than 11.9 µM; in the experiment with NCIH-460 cells (96 hours incubation), 1.79 µM. Moreover, the IC50 at human PARG was determined as 0.015 µM.

As to `CC1(C)CN(c2cc(S(=O)(=O)NC3(C)CC3)cn3c(-c4nnc(C(F)F)s4)ncc23)CC(CO)N1` (single isomer, unassigned) [Example 14b, (S or R)-3-(5-(difluoromethyl)-1,3,4-thiadiazol-2-yl)-8-(5-(hydroxymethyl)-3,3-dimethylpiperazin-1-yl)-N-(1-methylcyclopropyl)imidazo[1,5-a]pyridine-6-sulfonamide], the EC50 in the experiment with U2OS cells was more than 11.4 µM; in the experiment with NCIH-460 cells (96 hours incubation), 0.0774 µM. Moreover, the IC50 on human PARG was found to be 0.012 µM.

Turning to `C[C@H]1CN(c2cc(S(=O)(=O)NC3(C)CC3)cn3c(-c4nnc(C(F)F)s4)cnc23)C[C@H](C)N1` [Example 1, 3-(5-(difluoromethyl)-1,3,4-thiadiazol-2-yl)-8-((3S,5S)-3,5-dimethylpiperazin-1-yl)-N-(1-methylcyclopropyl)imidazo[1,2-a]pyridine-6-sulfonamide formate], the EC50 with U2OS cells (Homo sapiens, U2OS, 96 h) came out at 12.6 µM; with NCIH-460 cells (setting [1]), 0.07 µM. At human PARG, the IC50 was 0.011 µM.

Regarding `CC1(NS(=O)(=O)c2cc(C3=CCNCC3(F)F)c3c(Cl)nc(-c4nnc(C(F)F)s4)n3c2)CC1` [Example 2, 1-chloro-8-(3,3-difluoro-1,2,3,6-tetrahydropyridin-4-yl)-3-(5-(difluoromethyl)-1,3,4-thiadiazol-2-yl)-N-(1-methylcyclopropyl)imidazo[1,5-a]pyridine-6-sulfonamide], the EC50 was determined as 13.3 µM with U2OS cells (Homo sapiens, U2OS, 96 h) and 0.199 µM in the experiment on NCIH-460 cells (setting [1]). In addition, on human PARG, the 50% inhibitory concentration (IC50) worked out at 0.011 µM.

As for `COC[C@H]1CN(c2cc(S(=O)(=O)NC3(C)CC3)cn3c(-c4nnc(C(F)F)s4)ncc23)C[C@H](COC)N1` [Example 3, 8-((3R,5R)-3,5-bis(methoxymethyl)piperazin-1-yl)-3-(5-(difluoromethyl)-1,3,4-thiadiazol-2-yl)-N-(1-methylcyclopropyl)imidazo[1,5-a]pyridine-6-sulfonamide formate], the half-maximal effective concentration (EC50) in the experiment with U2OS cells (Homo sapiens, U2OS, 96 h) was more than 11 µM; with NCIH-460 cells (setting [1]), 0.019 µM. Moreover, on human PARG, the IC50 turned out to be 0.012 µM.

Turning to `CN=S1(=O)CCN(c2cc(S(=O)(=O)NC3(C)CC3)cn3c(-c4nnc(C(F)F)s4)ncc23)CC1C` (stereo not drawn) [Example 4, (Cis or Trans)-3-(5-(difluoromethyl)-1,3,4-thiadiazol-2-yl)-8-(2-methyl-1-(methylimino)-1-oxido-116-thiomorpholino)-N-(1-methylcyclopropyl)imidazo[1,5-a]pyridine-6-sulfonamide], the EC50 in the experiment with U2OS cells (Homo sapiens, U2OS, 96 h) was more than 20 µM; in the experiment with NCIH-460 cells (setting [1]) it was 0.111 µM. Further, the IC50 at human PARG came out at 0.011 µM.

Consider `CN=S1(=O)CCN(c2cc(S(=O)(=O)NC3(C)CC3)cn3c(-c4nnc(C(F)F)s4)ncc23)CC1C` (stereo not drawn) [Example 5, (Trans or Cis)-3-(5-(difluoromethyl)-1,3,4-thiadiazol-2-yl)-8-(2-methyl-1-(methylimino)-1-oxido-116-thiomorpholino)-N-(1-methylcyclopropyl)imidazo[1,5-a]pyridine-6-sulfonamide], for which the concentration giving a half-maximal response (EC50) was more than 20 µM in the experiment with U2OS cells and 0.208 µM with NCIH-460 cells (96 hours incubation).

Turning to `CC1CN(c2cc(S(=O)(=O)NC3(C)CC3)cn3c(-c4nnc(C(F)F)s4)ncc23)CC2(CC2)N1` (stereo not shown) [Example 10, 3-(5-(difluoromethyl)-1,3,4-thiadiazol-2-yl)-8-(5-methyl-4,7-diazaspiro[2.5]octan-7-yl)-N-(1-methylcyclopropyl)imidazo[1,5-a]pyridine-6-sulfonamide formate], the EC50 with U2OS cells (Homo sapiens, U2OS, 96 h) is more than 20 µM; in the experiment on NCIH-460 cells (setting [1]), 0.418 µM. At human PARG, the IC50 was determined as 0.011 µM.

With `CC1(NS(=O)(=O)c2cc(C3=CCNCC3)c3c(C4CC4)nc(-c4nnc(C(F)F)s4)n3c2)CC1` [Example 11, 1-cyclopropyl-3-(5-(difluoromethyl)-1,3,4-thiadiazol-2-yl)-N-(1-methylcyclopropyl)-8-(1,2,3,6-tetrahydropyridin-4-yl)imidazo[1,5-alpyridine-6-sulfonamide formate], the half-maximal effective concentration (EC50) with U2OS cells (Homo sapiens) was 1720 µM; with NCIH-460 cells (Homo sapiens, NCI-H460, 96 hours incubation) it was 0.074 µM; at PARG, 0.009 µM. Also, on human PARG, the IC50 worked out at 0.016 µM.

Consider `CC1(NS(=O)(=O)c2cc(C3=CCNCC3)c3c(C(F)(F)F)nc(-c4nnc(C(F)F)s4)n3c2)CC1` [Example 12, 3-(5-(difluoromethyl)-1,3,4-thiadiazol-2-yl)-N-(1-methylcyclopropyl)-8-(1,2,3,6-tetrahydropyridin-4-yl)-1-(trifluoromethyl)imidazo[1,5-a]pyridine-6-sulfonamide formate], for which the EC50 with U2OS cells (Homo sapiens, U2OS, 96 h) came to 3.87 µM; in the experiment with NCIH-460 cells (setting [1]) it was 0.094 µM; on PARG it was 0.006 µM. Further, the IC50 at human PARG came to 0.011 µM.

Take `CC1(C)CN(c2cc(S(=O)(=O)NC3(C)CC3)cn3c(-c4nnc(C(F)F)s4)ncc23)CC(CO)N1` (stereo not shown) [Example 14, 3-(5-(difluoromethyl)-1,3,4-thiadiazol-2-yl)-8-(5-(hydroxymethyl)-3,3-dimethylpiperazin-1-yl)-N-(1-methylcyclopropyl)imidazo[1,5-a]pyridine-6-sulfonamide]: the EC50 with U2OS cells (Homo sapiens, U2OS, 96 h) was 9.52 µM; with NCIH-460 cells (setting [1]), 0.094 µM. Further, the IC50 at human PARG came out at 0.011 µM.

By EC50 is commonly meant the concentration that produces a half-maximal response. The IC50 is the concentration that gives 50% inhibition.
